According to patent US8754226B2, “Piperidinyl-substituted lactams as GPR119 modulators” (Array BioPharma Inc., priority 2010, dated 2014):

System: modified version of the GPR119 receptor (94% identity to human receptor)
Experiment: cAMP production assay (LANCE cAMP kit, TR-FRET) in HEK-293 cells
Format: cell-based
Conditions: for cAMP production in HEK-293 cells: HEK-293 cells stably expressing modified GPR119, test compounds 0.2 nM to 10 μM, one-hour incubation at ambient temperature; for Fold over baseline: increase in cAMP relative to basal levels, agonist activity if 1.5-fold or greater
Method: The assay utilized HEK-293 cells that stably express a modified version of the GPR119 receptor (94% identity to human receptor), under the control of a CMV promoter containing a tet-on element for tetracycline-inducible expression. GPR119 agonist-induced cyclic AMP (cAMP) production was measured in this cell line using the LANCE cAMP kit (Perkin Elmer, Waltham, Mass.). To generate a working stock of cells for the assay, cells were treated overnight with 1 μg/mL doxycycline at 37° C. in the presence of 5% CO2 to induce receptor expression. Cells were then harvested by enzymatic dissociation with 0.05% trypsin, resuspended in freezing medium (DMEM growth medium with 10% each of fetal bovine serum and DMSO), aliquoted and frozen at −80° C. On the day of the assay, frozen cells were thawed, washed 1× in PBS and resuspended in Hank's buffered salt solution (HBSS) containing 5 mM HEPES, 0.1% BSA and Alexa Fluor 647-conjugated anti-cAMP antibody (diluted 1:100). The cell suspension was then transferred to a Proxiplate Plus white 384-well assay plate (Perkin-Elmer) at 2000 cells/well. Test compounds at final concentrations ranging from 0.2 nM to 10 μM were added to the assay plate, followed by a one-hour incubation at ambient temperature (volume=10 μL/well). DMSO concentration was held constant at 0.5%. After incubation with test compounds, 10 μL of a detergent buffer containing a biotinylated cAMP/Europium-conjugated streptavidin complex (Europium-labeled cAMP tracer) were added to each well on the assay plate, followed by a 2-hour incubation at ambient temperature. During this incubation cAMP released from lysed cells competes with the Europium-labeled cAMP tracer for binding to the Alexa Fluor 647-conjugated antibody. […] Cellular cAMP levels were then determined by interpolation of raw signal data using a cAMP standard curve. Compounds were determined to have agonist activity if they stimulated a 1.5-fold or greater increase in cAMP relative to basal levels.

| SMILES | cAMP production in HEK-293 cells | Fold over baseline |
| --- | --- | --- |
| CCc1cnc(N2CCC(N3CCC[C@H](Nc4cc(Cl)c(S(C)(=O)=O)cc4F)C3=O)CC2)nc1 [Example 48, (S)-3-(5-chloro-2-fluoro-4-(methyl-sulfonyl)phenylamino)-1′-(5-ethylpyrimidin-2-yl)-[1,4′-bipiperidin]-2-one] | 16.9 nmol | 3.0 |
| CCc1cnc(N2CCC(N3CCC[C@H](N(C)c4cc(F)c(S(C)(=O)=O)cc4F)C3=O)CC2)nc1 [Example 78, (S)-3-((2,5-difluoro-4-(methylsulfonyl)phenyl)(methyl)amino)-1′-(5-ethylpyrimidin-2-yl)-[1,4′-bipiperidin]-2-one] | 13.6 nmol | 3.4 |
| CS(=O)(=O)c1ccc(N[C@@H]2CCN(C3CCN(c4cnc(Cl)cn4)CC3)C2=O)c(F)c1 [Example 118, (R)-1-(1-(5-chloropyrazin-2-yl)piperidin-4-yl)-3-(2-fluoro-4-(methylsulfonyl)phenyl-amino)pyrrolidin-2-one] | 40.6 nmol | 3.4 |
| Cn1nccc1-c1cnc(N2CCC(N3CC[C@H](Nc4ccc(S(C)(=O)=O)cc4F)C3=O)CC2)nc1 [Example 32, (S)-3-(2-fluoro-4-(methylsulfonyl)phenylamino)-1-(1-(5-(1-methyl-1H-pyrazol-5-yl)pyrimidin-2-yl)piperidin-4-yl)pyrrolidin-2-one] | 10.9 nmol | 2.4 |
| O=C(c1ccc(O[C@H]2CCN(C3CCN(c4ncc(Cl)cc4F)CC3)C2=O)cn1)N1CCCC1 [Example 148, (S)-1-(1-(5-chloro-3-fluoropyridin-2-yl)piperidin-4-yl)-3-(6-(pyrrolidine-1-carbonyl)pyridin-3-yloxy)pyrrolidin-2-one] | 14.4 nmol | 2.4 |
| CCc1cnc(N2CCC(N3CCC[C@H](Nc4cc(F)c(S(C)(=O)=O)cc4F)C3=O)CC2)cn1 [Example 59, (S)-3-(2,5-difluoro-4-(methylsulfonyl)phenylamino)-1′-(5-ethylpyrazin-2-yl)-[1,4′-bipiperidin]-2-one] | 22.6 nmol | 3.4 |
| CCc1cnc(N2CCC(N3CC[C@H](Nc4c(F)cc(S(C)(=O)=O)cc4F)C3=O)CC2)nc1 [Example 21, (S)-3-(2,6-difluoro-4-(methylsulfonyl)phenylamino)-1-(1-(5-ethylpyrimidin-2-yl)piperidin-4-yl)pyrrolidin-2-one] | 6.6 nmol | 1.9 |
| CCc1cnc(N2CCC(N3CC[C@H](Nc4cc(C)c(S(C)(=O)=O)cc4F)C3=O)CC2)nc1 [Example 35, (S)-1-(1-(5-ethylpyrimidin-2-yl)piperidin-4-yl)-3-(2-fluoro-5-methyl-4-(methylsulfonyl)phenylamino)pyrrolidin-2-one] | 14.5 nmol | 4.1 |
| CS(=O)(=O)c1ccc(N[C@H]2CCN(C3CCN(c4ncc(C#N)cn4)CC3)C2=O)c(F)c1 [Example 8, (S)-2-(4-(3-(2-fluoro-4-(methylsulfonyl)phenylamino)-2-oxopyrrolidin-1-yl)piperidin-1-yl)pyrimidine-5-carbonitrile] | 8.6 nmol | 2.5 |
| CS(=O)(=O)c1ccc(N[C@H]2CCN(C3CCN(c4cncc(Cl)n4)CC3)C2=O)c(F)c1 [Example 18, (S)-1-(1-(6-chloropyrazin-2-yl)piperidin-4-yl)-3-(2-fluoro-4-(methylsulfonyl)phenylamino) pyrrolidin-2-one] | 7.7 nmol | 1.8 |
| CS(=O)(=O)c1ccc(N[C@H]2CCN(C3CCN(c4ncc(C(F)(F)F)cc4Cl)CC3)C2=O)c(F)c1 [Example 102, (S)-1-(1-(3-chloro-5-(trifluoromethyl)pyridin-2-yl)piperidin-4-yl)-3-(2-fluoro-4-(methylsulfonyl)phenylamino) pyrrolidin-2-one] | 15.5 nmol | 3.4 |
| CS(=O)(=O)c1ccc(O[C@H]2CCN(C3CCN(c4ncc(C(F)(F)F)cc4Cl)CC3)C2=O)c(F)c1 [Example 136, (S)-1-(1-(3-chloro-5-(trifluoromethyl)pyridin-2-yl)piperidin-4-yl)-3-(2-fluoro-4-(methyl-sulfonyl)phenoxy)pyrrol-idin-2-one] | 36.5 nmol | 3.0 |
| CCc1cnc(N2CCC(N3CCCC[C@H](Nc4cc(F)c(S(C)(=O)=O)cc4F)C3=O)CC2)nc1.Cl [Example 82, (S)-3-(2,5-difluoro-4-(methylsulfonyl)phenylamino)-1-(1-(5-ethylpyrimidin-2-yl)piperidin-4-yl)azepan-2-one hydrochloride] | 18.5 nmol | 4.0 |
| CCc1cnc(N2CCC(N3CCC(Nc4ccc(S(C)(=O)=O)cc4F)C3=O)CC2)c(C)c1 (stereo not drawn) [Example 28, 1-(1-(5-ethyl-3-methylpyridin-2-yl)piperidin-4-yl)-3-(2-fluoro-4-(methylsulfonyl)phenylamino)pyrrolidin-2-one] | 39.4 nmol | 4.0 |
| CS(=O)(=O)c1cc(F)c(N[C@H]2CCCN(C3CCN(c4ncc(Cl)cn4)CC3)C2=O)cc1F [Example 50, (S)-1′-(5-chloropyrimidin-2-yl)-3-(2,5-difluoro-4-(methylsulfonyl)phenylamino)-[1,4′-bipiperidin]-2-one] | 11.4 nmol | 2.3 |
| CCc1cnc(N2CCC(N3CCC[C@H](Nc4cc(C)c(S(C)(=O)=O)cc4F)C3=O)CC2)nc1 [Example 58, (S)-1′-(5-ethylpyrimidin-2-yl)-3-(2-fluoro-5-methyl-4-(methylsulfonyl)phenylamino)-[1,4′-bipiperidin]-2-one] | 13.2 nmol | 2.4 |
| CS(=O)(=O)c1ccc(N[C@H]2CCN(C3CCN(c4cnc(Cl)cn4)CC3)C2=O)cn1 [Example 131, (S)-1-(1-(5-chloropyrazin-2-yl)piperidin-4-yl)-3-(6-(methylsulfonyl)pyridin-3-ylamino)pyrrolidin-2-one] | 24.8 nmol | 3.8 |
| CS(=O)(=O)c1ccc(O[C@H]2CCN(C3CCN(c4cnc(Cl)cn4)CC3)C2=O)c(F)c1 [Example 91, (S)-1-(1-(5-chloropyrazin-2-yl)piperidin-4-yl)-3-(2-fluoro-4-(methylsulfonyl)phenoxy)pyrrolidin-2-one] | 38.0 nmol | 3.9 |
| CS(=O)(=O)c1cc(F)c(N[C@H]2CCN(C3CCN(c4ccc(C(F)(F)F)cn4)CC3)C2=O)cc1F [Example 104, (S)-3-(2,5-difluoro-4-(methylsulfonyl)phenyl-amino)-1-(1-(5-(trifluoro-methyl)pyridin-2-yl)piperidin-4-yl)pyrrolidin-2-one] | 13.5 nmol | 2.8 |
| O=C1[C@@H](Oc2ccc3[nH]ncc3c2)CCN1C1CCN(c2cnc(Cl)cn2)CC1 [Example 74, (S)-3-(1H-indazol-5-yloxy)-1-(1-(5-chloropyrazin-2-yl)piperidin-4-yl)pyrrolidin-2-one] | 8.6 nmol | 2.2 |
| CCc1ncc(N2CCC(N3CC[C@H](Nc4ccc(S(C)(=O)=O)cc4F)C3=O)CC2)cn1 [Example 159, (S)-1-(1-(2-ethylpyrimidin-5-yl)piperidin-4-yl)-3-(2-fluoro-4-(methylsulfonyl)phenylamino)pyrrolidin-2-one] | 8.0 nmol | 2.0 |
| CCc1ccc(N2CCC(N3CC[C@@H](Nc4ccc(S(C)(=O)=O)cc4F)C3=O)CC2)nc1 [Example 27B, (R)-1-(1-(5-ethylpyridin-2-yl)piperidin-4-yl)-3-(2-fluoro-4-(methylsulfonyl)phenylamino)pyrrolidin-2-one] | 7.5 nmol | 2.2 |
| O=C1[C@@H](Nc2ncc(C(F)(F)F)cc2Cl)CCCN1C1CCN(c2cnc(Cl)cn2)CC1 [Example 75, (S)-3-(3-chloro-5-(trifluoromethyl)pyridin-2-ylamino)-1′-(5-chloropyrazin-2-yl)-[1,4′-bipiperidin]-2-one] | 9.1 nmol | 2.5 |
| CCc1cnc(N2CCC(N3CCC[C@H](Nc4ccc(S(C)(=O)=O)c(Cl)c4)C3=O)CC2)nc1 [Example 56, (S)-3-(3-chloro-4-(methylsulfonyl)phen-ylamino)-1′-(5-ethylpyrimidin-2-yl)-[1,4′-bipiperidin]-2-one] | 18.0 nmol | 2.4 |
